“Also recorded” adds a separate entry of the source.
Legend:
[1] = system: long-term potentiation in CA1 field of hippocampal slices; assay: Promotion of long-term potentiation (LTP) in CA1 field of hippocampal slices; assay type: cell-based, rat; conditions: 1.5 mM, theta burst stimulation; vs absence of drug, p<0.02; FIG. 3
Protocol: Long-term potentiation (LTP; a stable increase in the EPSP size of single responses after brief periods of high frequency stimulation) was elicited in the CA1 field of hippocampal slices in the absence (see FIG. 3, stippled bars, N=6) and in the presence of 1.5 mM of Invention Compound I (see FIG. 3, striped bars, N=5). In the latter case, the amount of potentiation was determined after washing out the test compound and comparing the response size with that before test compound infusion. Data presented in FIG. 3 show the percent increase in the EPSP amplitude (mean and S.D.) at 40, 60, and 90 minutes after LTP induction.
For these studies, field EPSPs in slices of hippocampus were elicited by single stimulation pulses and recorded by extracellular electrodes as described in Example II. After collecting responses every 40 seconds for 20-30 minutes to establish a baseline, LTP was induced with ten short bursts of pulses delivered to the CA3 axons; each burst consisted of four pulses separated by 10 milliseconds; the interval between the bursts was 200 milliseconds. This pattern of axon stimulation mimics a discharge rhythm observed in the hippocampus of animals engaged in learning and is referred to as the "theta burst stimulation paradigm" [see, for example, Larson and Lynch in Science Vol. 232: 985-988 (1986)]. […]

AMPA receptor = assay: Monosynaptic EPSP responses in the hippocampus of anesthetized rats after intraperitoneal injection; assay type: in vivo, rat (male Sprague-Dawley); conditions: i.p. 120-180 mg/kg
Protocol: The time constant for the decay of the EPSP is a measure for the duration of the response.
In these experiments, male Sprague-Dawley rats were anesthetized with urethane (1.7 g/kg) and body temperature was maintained at 37° C. with the use of a heat lamp. A stimulation electrode (two twisted stainless steel wires, 150 μm diameter, insulated with teflon) was placed stereotaxically in the trajectory of the Schaffer collateral (SC) pathway from CA3 to CA1 of the hippocampus (coordinates relative to Bregma: 3.5 mm P., 3.5 mm L., and 3.0-3.7 mm V). A recording electrode (stainless steel, 150 μm diameter, insulated with teflon) was placed in the ipsilateral CA1 field (coordinates relative to Bregma: 3.8 mm P., 2.9 mm L., and 2.2-2.8 mm V.), 100-200 μm ventral to the electrophysiologically-identified CA1 stratum pyramidale (i.e., in the stratum radiatum).
Decay time constants were determined by single exponential fits to the decay phase of the synaptic response and expressed as a percent of the value obtained during the pre-injection control period.

AMPA receptors = assay: Field EPSP in rat hippocampal slices (field CA1): amplitude and area of AMPA receptor-mediated synaptic responses; assay type: cell-based, rat (Sprague-Dawley)
Protocol: The physiological effects of invention compounds can be tested in vitro with slices of rat hippocampus as follows. Excitatory responses (field EPSPs) are measured in hippocampal slices which are maintained in a recording chamber continuously perfused with artificial cerebrospinal fluid (ACSF).
To conduct these tests, the hippocampus was removed from anesthetized, 2 month old Sprague-Dawley rats and in vitro slices (400 micrometers thick) were prepared and maintained in an interface chamber at 35° C. using conventional techniques [see, for example, Dunwiddie and Lynch, J. Physiol. Vol. 276: 353-367 (1978)]. The chamber was constantly perfused at 0.5 ml/min with ACSF containing (in mM): NaCl 124, KCl 3, KH2 PO4 1.25, MgSO4 2.5, CaCl2 3.4, NaHCO3 26, glucose 10 and L-ascorbate 2. A bipolar nichrome stimulating electrode was positioned in the dendritic layer (stratum radiatum) of the hippocampal subfield CA1 close to the border of subfield CA3.
Current pulses (0.1 msec) through the stimulating electrode activate a population of the Schaffer-commissural (SC) fibers which arise from neurons in the subdivision CA3 and terminate in synapses on the dendrites of CA1 neurons. Activation of these synapses causes them to release the transmitter glutamate. Glutamate binds to the postsynaptic AMPA receptors which then transiently open an associated ion channel and permit a sodium current to enter the postsynaptic cell. This current results in a voltage in the extracellular space (the field excitatory postsynaptic potential or field "EPSP") which is recorded by a high impedance recording electrode positioned in the middle of the stratum radiatum of CA1.
For the experiments summarized in FIG. 1, the intensity of the stimulation current was adjusted to produce half-maximal EPSPs (typically about 1.5-2.0 mV). Paired stimulation pulses were given every 40 sec with an interpulse interval of 200 msec (see below). The field EPSPs of the second response were digitized and analyzed to determine amplitude, half-width, and response area. If the responses were stable for 15-30 minutes (baseline), test compounds were added to the perfusion lines for a period of about 15 minutes. The perfusion was then changed back to regular ACSF.
Paired-pulse stimulation was used since stimulation of the SC fibers, in part, activates interneurons which generate an inhibitory postsynaptic potential (IPSP) in the pyramidal cells of CA1. This feed forward IPSP typically sets in after the EPSP reaches its peak. It accelerates the repolarization and shortens the decay phase of the EPSP, and thus could partially mask the effects of the test compounds. One of the relevant features of the feed-forward IPSP is that it can not be reactivated for several hundred milliseconds following a stimulation pulse. This phenomenon can be employed to advantage to eliminate IPSP by delivering paired pulses separated by 200 milliseconds and using the second ("primed") response for data analysis.
These effects are mirrored in the field EPSP, as reported in the literature [see, for example, Staubli et al., Psychobiology supra; Xiao et al., Hippocampus supra; Staubli et al., Hippocampus Vol. 2: 49-58 (1992)].
The variables set forth in the table refer to the following generic structure: [drawing 33]

[2] = system: hippocampal electroencephalogram; assay: Hippocampal electroencephalogram monitoring for electrographic seizures after i.p. injection; assay type: in vivo, rat (male Sprague-Dawley); conditions: i.p. 120-180 mg/kg
[3] = peripheral administration in humans; cited from earlier work

Structure (SMILES)	degree of stable long-term potentiation [1]	time to reversal of the increased response duration (AMPA receptor) [min]	effect on duration / decay of synaptic responses (AMPA receptor; anesthetized rats, FIG. 4)	blood-brain barrier passage (AMPA receptor; inferred from EPSP effect)	increase in area of the field EPSP (AMPA receptors; 100 μM, mean and S.D. of 4 experiments) [%]	increase in response area relative to aniracetam (AMPA receptors; 750 μM)	onset and reversibility of effect (AMPA receptors; 750 μM, 15 min infusion, washout, FIG. 1)	effect on amplitude, duration (half-width) and area of synaptic response (AMPA receptors; 750 μM, 15 min infusion, FIG. 1)	EC50 (AMPA receptors; percent increase in field EPSP amplitude, log dose/response, maximal response of 85% increase assumed where solubility was limiting, read-out: EC50 (field EPSP amplitude)) [µM]	electrographic seizures [2]	conversion to anisoyl-GABA [3]
O=C(c1ccc2c(c1)OCCO2)N1CC=CCC1 [Invention Compound I]	increases the magnitude of long-term potentiation; also recorded: nearly twice as large; also recorded: facilitate induction of maximal long-term potentiation in vitro	60 to 120	slows the decay rate of synaptic responses; also recorded: rapid increase in the duration of the synaptic response; also recorded: somewhat larger for the second (primed) response; also recorded: reversibly prolong synaptic responses in the hippocampus	sufficient amounts of the test compound cross the blood-brain barrier	46±16	nine	the effects occur quickly after infusion (horizontal bar) and reverse upon washout; also recorded: rapid onset of action and was fully reversible upon washout	increases the amplitude and duration (measured as half-width) of synaptic responses; also recorded: much larger effect than does aniracetam at twice the concentration; also recorded: the magnitude of the effects was much greater	500	in no case did injections of Invention Compound I produce electrographic seizures	–
COc1ccc(C(=O)N2CCCC2=O)cc1 [aniracetam, N-anisoyl-2-pyrrolidinone]	–	–	–	–	–	–	–	–	–	–	about 80%

From patent US5852008A, “Heteroatom substituted benzoyl derivatives that enhance synaptic response mediated by receptors” (The Regents of the University of California, priority 1995, dated 1998)
